3 compounds from patent US8795997B2 (priority 2009, dated 2014) can be followed below.

Holding throughout (format): cell-based
In assay [1] the test system is yeast Saccharomyces cerevisiae. The experiment in a line: Simultaneous saccharification and fermentation (SSF) of spruce slurry. The settings on record: for Final ethanol concentration: after 70 hours. As to the method: Addition of sodium dithionite and sodium sulphite was tested in an SSF process. Spruce was pretreated as described in Example 1 above. The spruce slurry was adjusted to pH 5.4 with a 5 M solution of sodium hydroxide. Ten 250-mL shake flasks equipped with magnetic stirrer bars were filled with 100 g of spruce slurry. Sodium dithionite or sodium sulphite was added to the slurries to final concentrations of 7.5 and 10 mM. The additions were performed at room temperature (23° C.) for 10 min with stirring. Duplicate experiments were made. Cellulase and cellobiase preparations were prepared and added to the slurry using the enzyme activity loadings as described in Example 1 above. Further, the yeast inoculum was prepared according to Example 1 above. Inoculums were added to give a start concentration of 2.0 g/L (cell dry weight) in every flask. No source of extra nutrients was added. For comparison, two flasks with spruce slurry to which no reducing agents had been added were included in the experiment. The flasks were incubated at 35° C. for 69 h in a water bath with magnetic stirring. The flasks were sealed with Parafilm (Pechiney Plastic Packaging Company, Chicago, Ill., USA) to prevent evaporation of ethanol. Samples were withdrawn for analysis of ethanol according to Examplel above.
A spruce slurry was prepared according to Examples 1 and 2 above. Different flasks were filled with 100 g each of the spruce slurry and were subjected to a SSF process according to Example 2 above, but with different amounts of dithionite and sulphite added. The produced ethanol was monitored during the fermentation. […]

In assay [2] the test system is yeast Saccharomyces cerevisiae. Put plainly: Simultaneous saccharification and fermentation (SSF) of sugarcane bagass slurry. The settings on record: for Fermentability: 7.5 and 10 mM, 13 and 45 hours (FIG. 9). The procedure: The pretreatment of sugarcane bagass for SSF experiments was performed in the Swedish cellulosic ethanol pilot plant (operated by SEKAB E-Technology, Örnskoldsvik, Sweden). Sugarcane bagass was treated in a continuous mode in a 30-liter reactor at a temperature of 198-199° C. and with a residence time of 13-14 min. The feed rate was 24 kg (dry weight) per h and the bagass was impregnated with sulfur dioxide (0.5 kg/h). The pH after pretreatment was 2.7. The dry matter content was 19%. The pretreated material was cooled and stored at 4° C. until further use.
SSF experiments were also performed with sugarcane bagass slurries. The sugarcane bagass slurries were prepared as described in Example 1. Reducing agents, dithionite and sulphite, respectively, were added 10 min prior to inoculum in concentrations of studied 7.5 and 10 mM. The ethanol concentration was measured after 13 and 45 hours according to the protocol described in Example 1.

The test system of assay [3] is baker's yeast (Saccharomyces cerevisiae). As to the method: The pH of the sugarcane bagass and spruce hydrolysates were adjusted to 5.5 with a 5 M solution of sodium hydroxide. The conditioning of each hydrolysate was performed in eight 100-mL glass vessels equipped with magnetic stirrer bars. 26 mL hydrolysate was added to all vessels, and the vessels were placed on a magnetic stirrer plate (IKA-Werke, Staufen, Germany). Sodium dithionite (chemical grade; >87%, Merck, Darmstadt, Germany) was added to hydrolysates in the concentrations 5 and 10 mM. Additions of sodium sulphite to 5 and 10 mM were also performed. The additions were made at room temperature (23° C.) and the samples were kept for 10 min with stirring. The experiments were performed in duplicates.
The efficiency of the additions of the reducing agents was compared with alkali detoxification.
Ethanol measurements were performed by using an enzymatic kit (Ethanol UV-method, Boehringer Mannheim GmbH, Mannheim, Germany). Fermentation experiments were performed to evaluate the effectiveness of the additions and treatments. For comparison, untreated hydrolysates were included in the fermentation experiments as well as reference fermentations of sugar-based medium with an amount of fermentable sugars (i.e. glucose and mannose) corresponding to that in the hydrolysate samples. The fermentations were carried out using baker's yeast (Saccharomyces cerevisiae) (Jastbolaget AB, Rotebro, Sweden). The yeast inoculum was prepared in 750-mL cotton-plugged shake flasks with 300 mL YEPD medium (2% yeast extract, 1% peptone, 2% D-glucose). The flasks were inoculated and incubated with agitation at 30° C. for approximately 12 h. The cells were harvested in the late exponential growth phase by centrifugation (Hermla Z206A, Hermle Labortechnik GmbH, Wehingen, Germany) at 1,500 g for 5 min. The cells were resuspended in an appropriate amount of sterile water to achieve an inoculum consisting of 2.0 g/L (cell dry weight) in all fermentation vessels. The fermentation was carried out in 14 25-mL glass flasks equipped with magnets for stirring and sealed with rubber plugs pierced with cannulas for letting out carbon dioxide. The hydrolysate samples (23.75 mL), or alternatively the sugar solution for reference fermentations, were added to the fermentation flasks along with 0.5 mL of a nutrient solution (150 g/L yeast extract, 75 g/L (NH4)2HPO4, 3.75 g/L MgSO4.7H2O, 238.2 g/L NaH2PO4.H2O), and 0.75 mL of yeast inoculum. The flasks were incubated at 30° C. in a water bath with magnetic stirring (IKA-Werke). Samples for measurement of sugars and ethanol were withdrawn during the fermentation. The glucose levels during the fermentation were estimated by using a glucometer (Glucometer Elite XL, Bayer AG, Leverkusen, Germany).

Setting [4] is: spruce hydrolysate, 10 mM (FIGS. 1 and 2).
Setting [5] is: spruce hydrolysate, 14 h fermentation, 10 mM.
[6] abbreviates: 6 h fermentation, NH4OH detoxification, pH 9, 55° C., 3 h.
Setting [7] is: spruce hydrolysate, 14 h fermentation, NH4OH detoxification, pH 9, 55° C., 3 h.

Like-named read-outs stand apart in the source and are kept apart here.

`O=S([O-])S(=O)[O-].[Na+].[Na+]` [Dithionite, Sodium dithionite]: the Final ethanol concentration entry in assay [1] (2.5 mM) was “about 10 g/L”; in assay [1] (5 mM), 35 to 40 g/L; in assay [1] (7.5 mM), “highest ethanol production”; in assay [1] (10 mM) it was “highest ethanol production”; in assay [1] (15 mM), “highest ethanol production”; in assay [1] (20 mM), 35 to 40 g/L. Besides, the Final ethanol concentration result in assay [1] (30 mM) was “about 30 g/L”. Further, the “Ethanol levels and ethanol formation” value in assay [1] (7.5 mM, compared with 10 mM dithionite (FIG. 5)) is reported as “reached the same high levels of ethanol, but ethanol formation was slightly slower”. The “Time after which ethanol formation leveled off” value in assay [1] (10 mM (FIG. 5)) is listed as “about 45 h”. In addition, the “Improvement of ethanol production, dithionite compared with sulphite” value in assay [1] (10 mM (FIG. 8)) was “better improvement than the addition of sulphite”. In assay [1] (7.5 and 10 mM (FIG. 5)), the “Ethanol production compared to untreated” value was “higher ethanol production compared to the untreated hydrolysate”. The Fermentability result in assay [2] was “improved fermentability”. In addition, the “Ethanol production, dithionite compared with sulphite” value in assay [2] (10 and 7.5 mM (FIG. 9)) is reported as “better than any of the sulphite concentrations”. For the same compound, the “Ethanol concentration compared with other additions” value in assay [3] (10 mM (FIG. 4)) is recorded as “higher ethanol concentration compared to addition of 5 mM dithionite or 10 mM sulphite”. Moreover, the Balanced ethanol yield in assay [3] (6 h fermentation, 10 mM) is recorded as 0.28 g EtOH/Σglucose & mannose prior to detoxification; in assay [3] (setting [5]) it was 0.34 g EtOH/Σglucose & mannose prior to detoxification. Also, the Productivity in assay [3] (6 h fermentation, 10 mM) was found to be 3.9 g EtOH×L^−1×h^−1; in assay [3] (setting [5]), 2.5 g EtOH×L^−1×h^−1. The “Yield (ethanol)” value is 0.34 g EtOH/g consumed glucose & mannose in assay [3] (6 h fermentation, 10 mM) and 0.37 g EtOH/g consumed glucose & mannose in assay [3] (setting [5]). Also, the “Glucose consumption rates and amounts of ethanol produced” value is recorded as “substantial improvement compared to untreated hydrolysate” in assay [3] (spruce hydrolysate, 5 mM (FIGS. 1 and 2)); “comparable to those of the reference fermentation” in assay [3] (setting [4]).
In the case of `N` [NH4OH, ammonium hydroxide, reference compound], in assay [3] (setting [6]), the Balanced ethanol yield was 0.25 g EtOH/Σglucose & mannose prior to detoxification, the Productivity amounted to 3.5 g EtOH×L^−1×h^−1 and the “Yield (ethanol)” value is listed as 0.34 g EtOH/g consumed glucose & mannose. Besides, in assay [3] (setting [7]), the Balanced ethanol yield is reported as 0.37 g EtOH/Σglucose & mannose prior to detoxification, the Productivity was determined as 2.8 g EtOH×L^−1×h^−1 and the “Yield (ethanol)” value is 0.43 g EtOH/g consumed glucose & mannose.
`O=S([O-])[O-].[Na+].[Na+]` [Sulphite, sodium sulphite]: the Final ethanol concentration result is “did not result in as high final ethanol concentrations” in assay [1] (2.5 mM); “did not result in as high final ethanol concentrations” in assay [1] (5 mM); 35 to 40 g/L in assay [1] (7.5 mM); 35 to 40 g/L in assay [1] (10 mM); “about 40 g/L” in assay [1] (15 mM); “about 40 g/L” in assay [1] (20 mM). The Final ethanol concentration result in assay [1] (30 mM) is “about 40 g/L”. In addition, in assay [1] (7.5 and 10 mM (FIG. 5)), the “Ethanol production compared to untreated” value was “higher ethanol production compared to the untreated hydrolysate”. In assay [1] (7.5 and 10 mM (FIG. 5)), the “Ethanol production compared with dithionite samples” value is “lower ethanol production compared to the samples to which dithionite was added”. Besides, the “Time after which ethanol formation leveled off” value in assay [1] (7.5 and 10 mM (FIG. 5)) is on record as 20 h. In addition, the Fermentability result in assay [2] is “improved fermentability”. Besides, the Balanced ethanol yield in assay [3] (6 h fermentation, 10 mM) is 0.21 g EtOH/Σglucose & mannose prior to detoxification; in assay [3] (setting [5]), 0.16 g EtOH/Σglucose & mannose prior to detoxification. Besides, the Productivity in assay [3] (6 h fermentation, 10 mM) turned out to be 2.9 g EtOH×L^−1×h^−1; in assay [3] (setting [5]), 1.2 g EtOH×L^−1×h^−1. Also, the “Yield (ethanol)” value is 0.32 g EtOH/g consumed glucose & mannose in assay [3] (6 h fermentation, 10 mM) and 0.29 g EtOH/g consumed glucose & mannose in assay [3] (setting [5]). Moreover, the “Glucose consumption rates and amounts of ethanol produced” value in assay [3] (setting [4]) is listed as “substantial improvement compared to untreated hydrolysate”.
